Test results published in patent US9687845B2, “Self-loading microfluidic device and methods of use” (Wisconsin Alumni Research Foundation, priority 2011, dated 2017).
Where a name gives a salt, the structure may show the parent alone.

Experiments:
A. baumannii [1] = experiment: Growth in sugars, microfluidic device (phenol red colour change); on Growth, Device: key: + indicates growth; − indicates no growth; format: cell-based; details: for Growth, Device: A. baumannii, sugar 1% (w/v), LB with 0.05% phenol red pH 8.2
Protocol: (§1) Self-loading microfluidic devices were prepared as described above. Reaction wells were filled with different sugar solutions including (1) cellbiose, (2) glycerol, (3) lactose, (4) mannitol, (5) mannose, (6) raffinose, (7) sucrose, (8) trehalose, (9) xylose, and (10) control (no sugar) (FIG. 28). The final concentration of the sugar in each chamber was 1% (w/v). After loading the sugar solutions, the liquid was evaporated as described above. The devices were then assembled and degassed by vacuum.
(§2) Cultures of A. baumannii-1, A. baumannii-2, K. pneumoniea-1, K. pneumoniea-2, S. aureus-1, S. aureus-2, E. coli (UT189), E. faecalis-1, E. faecalis-2, V. cholerae-1, and (11) V. cholerae-2 were grown for 15 hours in LB (pH 7.0). The cultures were then diluted at a ratio of 1:50 in LB containing 0.05% (w/v) phenol red (pH8.2) and added to individual devices using degas-driven flow. Growth of bacteria results in a pH change of the LB that causes a color change from red (illustrated in FIGS. 29 and 30 as filled chambers) to yellow (illustrated in FIGS. 29 and 30 as hatched chambers).

E. faecalis [2] = experiment: as above; format: cell-based; details: E. faecalis-1 and E. faecalis-2; by 18 hours of incubation
Protocol: as §1, §2

E. coli (UT189) [3] = experiment: as above; format: cell-based; details: for Growth, Device: E. coli (UT189), sugar 1% (w/v), LB with 0.05% phenol red pH 8.2; for growth in device chamber: E. coli (UT189)-1
Protocol: as §1, §2

K. pneumoniae [4] = experiment: as above; format: cell-based; details: for Growth, Device: K. pneumoniae, sugar 1% (w/v), LB with 0.05% phenol red pH 8.2; for growth in device chamber: K. pneumoniea-1 and K. pneumoniea-2, by 4 hours of incubation
Protocol: as §1, §2

A. baumannii [5] = experiment: Growth in sugars, culture tubes; format: cell-based; details: for Growth, Tube: A. baumannii, culture tubes
Text: (§3) Results observed in microfluidic devices are illustrated in FIGS. 29A-F and 30A-E. The predicted growth as compared to devices and culture tubes are summarized in Table 2.

E. faecalis [6] = experiment: Growth in sugars, culture tubes; format: cell-based
Text: as §3

E. coli (UT189) [7] = experiment: Growth in sugars, culture tubes; format: cell-based
Text: as §3

K. pneumoniae [8] = experiment: Growth in sugars, culture tubes; format: cell-based
Text: as §3

S. aureus [9] = details: cited from earlier work
E. coli (UT189) [10] = details: cited from earlier work
E. faecalis [11] = details: cited from earlier work
S. aureus [12] = experiment: Growth in sugars, microfluidic device (phenol red colour change); on Growth, Device: key: + indicates growth; − indicates no growth; format: cell-based; details: for Growth, Device: S. aureus, sugar 1% (w/v), LB with 0.05% phenol red pH 8.2
Protocol: as §1, §2

S. aureus [13] = experiment: Growth in sugars, culture tubes; format: cell-based; details: for Growth, Tube: culture tubes; on Growth, Tube: key: + indicates growth; − indicates no growth
Text: as §3

V. cholerae = experiment: Growth in sugars, microfluidic device (phenol red colour change); format: cell-based; details: V. cholerae-1 and V. cholerae-2; by 4 hours of incubation
Protocol: as §1, §2

P. mirabilis (HI4320) [14] = experiment: Off-chip MIC, broth dilution method according to CLSI protocols; format: cell-based; set-up: unit not given beside the values; details: CAMHB, 20 h at 35° C.
Protocol: (§4) Off-chip MIC assays using the broth dilution method according to CLSI protocols were performed as control experiments and to validate experimental data obtained with the microfluidic device.

P. mirabilis (HI4320) [15] = experiment: MIC measurement using the self-loading microfluidic device; format: cell-based; details: 18 h at 35° C., CAMBH pH 8.2 with 1% glucose and 0.05% phenol red, dilution series 0.5-1024 μg/mL
Protocol: (§5) Minor adjustments were made to procedures mimicking the CLSI guidelines to perform MIC measurements using microfluidic devices prepared as described above. Antibiotic stock solutions (10 mg/mL in sterile deionized water) of vancomycin hydrochloride, tetracycline hydrochloride, and kanamycin monosulfate were used to prepare a 1:10 dilution series. Appropriate amounts of these dilutions were added to sterile deionized water to create a two-fold dilution series that varied from 0.5-1024 μg/mL. Antibiotic solution (2.94 μL) was added to each chamber with the lowest antibiotic concentration located closest to the inlet port and the highest antibiotic concentration located in the chamber closest to the vacuum well. After antibiotic loading, the device was placed in a laminar flow hood to evaporate the liquid. After the liquid was evaporated, the device was assembled by placing the layer of PDMS forming the channel section over the chamber layer containing the dried antibiotic such that the channels connected the chambers. The assembled device was then placed under vacuum.
(§6) The standardized culture was then diluted 1:200 in CAMBH media, pH 8.2 supplemented with 1% glucose and 0.05% phenol red to provide a colorimetric change upon growth. The device was removed from the vacuum and 20 μL of cell suspension was pipetted onto the inlet port. […] Bacterial growth changed the pH of the liquid nutrient media containing the indicator phenol red, and produced a visible color change that was used to identify the cell growth in chambers.

K. pneumoniae [16] = experiment: as above; format: cell-based; details: 18 h at 35° C., CAMBH pH 8.2 with 1% glucose and 0.05% phenol red, dilution series 0.5-1024 μg/mL
Protocol: as §5, §6

K. pneumoniae [17] = experiment: Off-chip MIC, broth dilution method according to CLSI protocols; format: cell-based; details: CAMHB, 20 h at 35° C.
Protocol: as §4

[18] = test system: kanamycin-resistant strain of E. coli MG1655; experiment: Susceptibility to multiple antibiotics on a single microfluidic device using breakpoint values; format: cell-based; details: 18 h; vancomycin 2, 4, 8 μg/mL, tetracycline 0.5, 1, 2 μg/mL, kanamycin 1, 2, 4 μg/mL
Text: In this Example, a single microfluidic device was used to simultaneously test the susceptibility of the kanamycin-resistant strain of E. coli MG1655 described above to multiple antibiotics using breakpoint values.
In clinical microbiology, a strain is classified as susceptible, intermediate, or resistant based on the relationship of the MIC of an antibiotic to specified ‘breakpoint’ values. Breakpoint values are set by organizations, such as the CLSI, and take into consideration MIC values of wild type strains, pharmacokinetic/pharmacodynamic data, and clinical outcomes. Breakpoint values are available for specific clinically relevant pairings of bacterial species and antibiotics and enable clinical decisions without knowing the exact MIC value.
Specifically, vancomycin, tetracycline, and kanamycin were added to the reaction wells of a single device. The most common breakpoints for vancomycin (susceptible <2 μg/mL, resistant >2 μg/mL), tetracycline (susceptible <1 μg/mL, intermediate=2 μg/mL, resistant >2 μg/mL), and gentamicin (susceptible <2 μg/mL, intermediate=4 μg/mL, resistant >4 μg/mL) were used. As there are no published breakpoints available for kanamycin, the breakpoint values for the structurally related aminoglycoside, gentamicin, against aerobic bacteria was used. A microfluidic device with ten chambers was prepared as described in Example 1 above. The ten chambers were divided into three chambers for each antibiotic vancomycin (2, 4, 8 μg/mL), tetracycline (0.5, 1, 2 μg/mL), and kanamycin (1, 2, 4 μg/mL) and one chamber for a control containing no antibiotic.

[19] = S. aureus-1, by 8 hours of incubation
Wherever Growth, Device is given: key: + indicates growth; − indicates no growth.
Wherever Growth, Predicted is given: key: + indicates growth; − indicates no growth.

SMILES	Growth, Device (A. baumannii [1])	growth in device chamber (E. faecalis [2])	Growth, Device (E. coli (UT189) [3])	Growth, Device (K. pneumoniae [4])	Growth, Tube (A. baumannii [5])	Growth, Tube (E. faecalis [6])	Growth, Tube (E. coli (UT189) [7])	Growth, Tube (K. pneumoniae [8])	Growth, Predicted (S. aureus [9])	Growth, Predicted (E. coli (UT189) [10])	Growth, Predicted (E. faecalis [11])	growth in device chamber (S. aureus [12]; [19])	Growth, Device (S. aureus [12])	growth in device chamber (K. pneumoniae [4])	Growth, Tube (S. aureus [13])	growth in device chamber (E. coli (UT189) [3])	also measured
OC[C@H]1O[C@@H](O[C@H]2[C@H](O)[C@@H](O)[C@@H](O)O[C@@H]2CO)[C@H](O)[C@@H](O)[C@@H]1O [Cellbiose, cellbiose]	−	grew	−	−	−	+	−	+	−	−	+						
OCC(O)CO [Glycerol, glycerol]	−	grew	−	+	−	+	−	+	+	+	+	grew	+	grew	−		growth in culture tubes (S. aureus [13]): no growth was observed
OC[C@H]1O[C@@H](O[C@H]2[C@H](O)[C@@H](O)C(O)O[C@@H]2CO)[C@H](O)[C@@H](O)[C@H]1O (stereo partly shown) [Lactose, lactose]		grew	+	−		+	+	−	+	+	+	growth was not observed	−		+	grew	growth in device chamber (S. aureus [12]; S. aureus-2, by 18 hours of incubation): growth was not observed
OC[C@@H](O)[C@@H](O)[C@H](O)[C@H](O)CO [Mannitol, mannitol]		grew	+	+		+	+	+	+	+	+	grew	+	grew	+	grew	
OC[C@H]1O[C@H](OC[C@H]2O[C@H](O[C@]3(CO)O[C@H](CO)[C@@H](O)[C@@H]3O)[C@H](O)[C@@H](O)[C@@H]2O)[C@H](O)[C@@H](O)[C@H]1O [Raffinose, raffinose]	−		−	+	−	−	−	+	−	−	−			grew			
OC[C@H]1O[C@@](CO)(O[C@H]2O[C@H](CO)[C@@H](O)[C@H](O)[C@H]2O)[C@@H](O)[C@@H]1O [Sucrose, sucrose]		grew	−	+		+	−	+	+	−	+	grew	+	grew	+		growth in device chamber (V. cholerae): grew
OC[C@H]1O[C@H](O[C@H]2O[C@H](CO)[C@@H](O)[C@H](O)[C@H]2O)[C@H](O)[C@@H](O)[C@@H]1O [Trehalose, trehalose]		grew	−	+		+	+	+	+	+	+	grew	+	grew	+		growth in device chamber (V. cholerae): grew
O=C[C@H](O)[C@@H](O)[C@H](O)CO [Xylose, xylose]	+		−	−	−	−	+	+	−	+	−					grew	growth in device chamber (A. baumannii [1]; A. baumannii-1 and A. baumannii-2, by 8 hours of incubation): grew; growth in culture tubes (A. baumannii [5]; A. baumannii-1 and A. baumannii-2): did not grow
CN[C@H](CC(C)C)C(=O)N[C@H]1C(=O)N[C@@H](CC(N)=O)C(=O)N[C@H]2C(=O)N[C@H]3C(=O)N[C@H](C(=O)N[C@H](C(=O)O)c4cc(O)cc(O)c4-c4cc3ccc4O)[C@H](O)c3ccc(c(Cl)c3)Oc3cc2cc(c3O[C@@H]2O[C@H](CO)[C@@H](O)[C@H](O)[C@H]2O[C@H]2C[C@](C)(N)[C@H](O)[C@H](C)O2)Oc2ccc(cc2Cl)[C@H]1O [vancomycin, vancomycin hydrochloride]																	MIC, Broth (P. mirabilis (HI4320) [14]): >1024; MIC, Device (P. mirabilis (HI4320) [15]): >1024; MIC, Device (K. pneumoniae [16]): >1024; MIC, Broth (K. pneumoniae [17]): >1024; effect on growth of the strain [18]: did not have any effect
